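In this assay, cells in 96-well plates receive the compound at five concentrations for 48 hours. Endpoints are linearly interpolated between the surrounding concentrations. The concentration for full growth arrest is given as TGI.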
Legend:
Assay in all cases: NCI tumour cell line growth inhibition, 48 h
SK-OV-3 ovarian = system: SK-OV-3 ovarian
NCI-H23 lung = system: NCI-H23 lung
SF-268 CNS = system: SF-268 CNS
COLO 205 colon = system: COLO 205 colon
UACC-62 melanoma = system: UACC-62 melanoma
DMS 114 small cell lung = system: DMS 114 small cell lung
NCI-H522 lung = system: NCI-H522 lung
XF 498 CNS = system: XF 498 CNS
UACC-257 melanoma = system: UACC-257 melanoma
LXFL 529 NSCLC = system: LXFL 529 NSCLC
DU-145 prostate = system: DU-145 prostate
KM20L2 colon = system: KM20L2 colon
HL-60(TB) leukemia = system: HL-60(TB) leukemia
BT-549 breast = system: BT-549 breast
HCT-116 colon = system: HCT-116 colon
SK-MEL-28 melanoma = system: SK-MEL-28 melanoma
SNB-75 CNS = system: SNB-75 CNS
RXF 393 renal = system: RXF 393 renal
UO-31 renal = system: UO-31 renal
HT29 colon = system: HT29 colon
HOP-18 NSCLC = system: HOP-18 NSCLC
HCC-2998 colon = system: HCC-2998 colon
LOX IMVI melanoma = system: LOX IMVI melanoma
M14 melanoma = system: M14 melanoma
OVCAR-5 ovarian = system: OVCAR-5 ovarian
OVCAR-4 ovarian = system: OVCAR-4 ovarian
M19-MEL melanoma = system: M19-MEL melanoma
SF-295 CNS = system: SF-295 CNS
HOP-62 NSCLC = system: HOP-62 NSCLC
IGROV1 ovarian = system: IGROV1 ovarian
MALME-3M melanoma = system: MALME-3M melanoma
DMS 273 small cell lung = system: DMS 273 small cell lung
DLD-1 colon = system: DLD-1 colon
MOLT-4 leukemia = system: MOLT-4 leukemia
SK-MEL-2 melanoma = system: SK-MEL-2 melanoma
OVCAR-3 ovarian = system: OVCAR-3 ovarian
MDA-MB-231 breast = system: MDA-MB-231 breast
OVCAR-8 ovarian = system: OVCAR-8 ovarian
HCT-15 colon = system: HCT-15 colon
RPMI-8226 leukemia = system: RPMI-8226 leukemia
786-0 renal = system: 786-0 renal
SNB-78 CNS = system: SNB-78 CNS
NCI-H460 lung = system: NCI-H460 lung
RXF-631 renal = system: RXF-631 renal
NCI-H226 lung = system: NCI-H226 lung
PC-3 prostate = system: PC-3 prostate
CCRF-CEM leukemia = system: CCRF-CEM leukemia
SR leukemia = system: SR leukemia
MDA-MB-435 = system: MDA-MB-435
KM12 colon = system: KM12 colon
MDA-N = system: MDA-N
ACHN renal = system: ACHN renal
SN12C renal = system: SN12C renal
SK-MEL-5 melanoma = system: SK-MEL-5 melanoma
A498 renal = system: A498 renal
SF-539 CNS = system: SF-539 CNS
U251 CNS = system: U251 CNS
MCF7 breast = system: MCF7 breast
SNB-19 CNS = system: SNB-19 CNS
TK-10 renal = system: TK-10 renal
HOP-92 NSCLC = system: HOP-92 NSCLC
A549 NSCLC = system: A549 NSCLC
K-562 leukemia = system: K-562 leukemia
HS 578T breast = system: HS 578T breast
EKVX NSCLC = system: EKVX NSCLC
SW-620 colon = system: SW-620 colon
CAKI-1 renal = system: CAKI-1 renal

SMILES: Cc1cccc(C)c1NC(=O)C(C#N)C1=C(Cl)C(=O)c2ccccc2C1=O (configuration not stated)
- TGI (SK-OV-3 ovarian): 43.3 µM
- TGI (NCI-H23 lung): 44 µM
- TGI (SF-268 CNS): 31.6 µM
- TGI (COLO 205 colon): 10.2 µM
- TGI (UACC-62 melanoma): 33.4 µM
- TGI (DMS 114 small cell lung): 41.8 µM
- TGI (NCI-H522 lung): 26.2 µM
- TGI (XF 498 CNS): 28.9 µM
- TGI (UACC-257 melanoma): 21.6 µM
- TGI (LXFL 529 NSCLC): 30 µM
- TGI (DU-145 prostate): 28.1 µM
- TGI (KM20L2 colon): 50.7 µM
- TGI (HL-60(TB) leukemia): 38.2 µM
- TGI (BT-549 breast): 28.2 µM
- TGI (HCT-116 colon): 30.6 µM
- TGI (SK-MEL-28 melanoma): 38.1 µM
- TGI (SNB-75 CNS): 29.2 µM
- TGI (RXF 393 renal): > 47.8 µM
- TGI (UO-31 renal): 26.6 µM
- TGI (HT29 colon): 39.8 µM
- TGI (HOP-18 NSCLC): 25.3 µM
- TGI (HCC-2998 colon): 32.2 µM
- TGI (LOX IMVI melanoma): 43.8 µM
- TGI (M14 melanoma): 21.4 µM
- TGI (OVCAR-5 ovarian): 37.4 µM
- TGI (OVCAR-4 ovarian): 30.3 µM
- TGI (M19-MEL melanoma): 16.6 µM
- TGI (SF-295 CNS): 32.5 µM
- TGI (HOP-62 NSCLC): 32.9 µM
- TGI (IGROV1 ovarian): 31.8 µM
- TGI (MALME-3M melanoma): 30.4 µM
- TGI (DMS 273 small cell lung): > 100 µM
- TGI (DLD-1 colon): 30.1 µM
- TGI (MOLT-4 leukemia): 26.9 µM
- TGI (SK-MEL-2 melanoma): 29.2 µM
- TGI (OVCAR-3 ovarian): 26.9 µM
- TGI (MDA-MB-231 breast): 49.7 µM
- TGI (OVCAR-8 ovarian): 48.5 µM
- TGI (HCT-15 colon): 36 µM
- TGI (RPMI-8226 leukemia): 53.6 µM
- TGI (786-0 renal): 45.7 µM
- TGI (SNB-78 CNS): 56.1 µM
- TGI (NCI-H460 lung): 55.4 µM
- TGI (RXF-631 renal): 43 µM
- TGI (NCI-H226 lung): 17.4 µM
- TGI (PC-3 prostate): 28.9 µM
- TGI (CCRF-CEM leukemia): 35.1 µM
- TGI (SR leukemia): > 45.8 µM
- TGI (MDA-MB-435): 34.3 µM
- TGI (KM12 colon): 34.5 µM
- TGI (MDA-N): 28.6 µM
- TGI (ACHN renal): 28.8 µM
- TGI (SN12C renal): 32 µM
- TGI (SK-MEL-5 melanoma): 26.7 µM
- TGI (A498 renal): 29.3 µM
- TGI (SF-539 CNS): 48.1 µM
- TGI (U251 CNS): 42.7 µM
- TGI (MCF7 breast): 46.2 µM
- TGI (SNB-19 CNS): 32.4 µM
- TGI (TK-10 renal): 33.7 µM
- TGI (HOP-92 NSCLC): 22.4 µM
- TGI (A549 NSCLC): 41.6 µM
- TGI (K-562 leukemia): > 36.4 µM
- TGI (HS 578T breast): 52.1 µM
- TGI (EKVX NSCLC): 38.5 µM
- TGI (SW-620 colon): 34.3 µM
- TGI (CAKI-1 renal): 38.1 µM

— PubChem BioAssay (NCI)
